Data from patent US20250059202A1, “CRYSTAL FORM OF FUSED RING DERIVATIVE, AND PREPARATION METHOD THEREFOR AND USE THEREOF” (SHANGHAI YINGLI PHARMACEUTICAL CO., LTD, priority 2022, published 2025).
Where “and” joins values, the source holds several entries; their conditions need not be identical. Equal values may be shown once.

Tests used:
Type in all cases: physicochemical
[1] = Heating experiments (105° C., XRPD); conditions: about 1 hour
[2] = Competition experiments of crystal form I and crystal form IV in solvents at room temperature; conditions: 7 days, each tested solvent
[3] = Hygroscopicity under condition of high humidity
[4] = Stability of crystal form I in solvent at high temperature (50° C., XRPD)
[5] = Influencing factor stability test, light (4500±500 Lux, 25° C.)
[6] = Influencing factor stability test, high temperature (60±2° C.)
[7] = Dynamic Vapor Sorption (DVS)
Protocol: An Advantage 1.0 dynamic moisture adsorption instrument from SMS was used to detect, the temperature is 25° C., the relative humidity range is 0%-95%, humidity change step is relative humidity 5%, when the value of the mass change rate dm/dt is less than 0.002%, it is considered equilibrium of the balance, when the mass change rate is less than 0.01%/minute within 5 minutes, it is considered as standards of equilibrium in detection process, the maximum equilibrium time is 2 hours.

[8] = Influencing factor stability test, high humidity (25° C., RH92.5±5%)
[9] = Stability of crystal form I in solvent at room temperature (suspension equilibrium, XRPD)
[10] = Accelerated stability (40±2° C., RH 75±5%)

**Q.** For `CC(C)(Cc1cc2c(-c3ccc(C#N)cc3)cncc2s1)C(=O)O` [crystal form III, 3-[4-(4-Cyanophenyl)thieno[2,3-c]pyridin-2-yl]-2,2-dimethylpropanoic acid], which “XRPD after heating compared to before heating” value [1] is on record?
**A.** transform to the crystal form I

**Q.** Which “XRPD after heating compared to before heating” value [1] does the source give for `CC(C)(Cc1cc2c(-c3ccc(C#N)cc3)cncc2s1)C(=O)O` [crystal form IV, 3-[4-(4-Cyanophenyl)thieno[2,3-c]pyridin-2-yl]-2,2-dimethylpropanoic acid] here?
**A.** unchanged

**Q.** What about the “solid form after competition between crystal form I and crystal form IV (XRPD)” value [2] of the same compound?
**A.** transformed to the crystal form I

**Q.** For `CC(C)(Cc1cc2c(-c3ccc(C#N)cc3)cncc2s1)C(=O)O` [amorphous form, 3-[4-(4-Cyanophenyl)thieno[2,3-c]pyridin-2-yl]-2,2-dimethylpropanoic acid], which “hygroscopicity (in words)” value [3] is on record?
**A.** strong hygroscopicity

**Q.** Which “crystal form after suspension equilibration (XRPD)” value ([4]; 30 days, methanol-water, ethanol-water, isopropanol-water, acetone-water 50:50) does the source give for `CC(C)(Cc1cc2c(-c3ccc(C#N)cc3)cncc2s1)C(=O)O` [crystal form I, 3-[4-(4-Cyanophenyl)thieno[2,3-c]pyridin-2-yl]-2,2-dimethylpropanoic acid] here?
**A.** unchanged

**Q.** What about the “crystal form after suspension equilibration (XRPD)” value ([4]; 43 days, methanol, ethanol, isopropanol, acetone or ethyl acetate) of the same compound?
**A.** unchanged

**Q.** And the Assay ([5]; 0 day)?
**A.** 99.1%

**Q.** What about the Polymorph ([5]; 0 day) of the same compound?
**A.** Crystal form I

**Q.** And the Total impurities ([5]; 0 day)?
**A.** 0.05%

**Q.** What about the Water content ([5]; 0 day) of the same compound?
**A.** 0.05%

**Q.** What about the Assay ([5]; 5 days) of the same compound?
**A.** 99.8%

**Q.** And the Polymorph ([5]; 5 days)?
**A.** Crystal form I

**Q.** What about the Total impurities ([5]; 5 days) of the same compound?
**A.** 0.07%

**Q.** And the Water content ([5]; 5 days)?
**A.** 0.04%

**Q.** What about the Assay ([5]; 10 days) of the same compound?
**A.** 100.3%

**Q.** And the Polymorph ([5]; 10 days)?
**A.** Crystal form I

**Q.** What about the Total impurities ([5]; 10 days) of the same compound?
**A.** 0.12%

**Q.** What about the Water content ([5]; 10 days) of the same compound?
**A.** 0.09%

**Q.** And the Assay ([6]; 0 day)?
**A.** 99.1%

**Q.** And the Polymorph ([6]; 0 day)?
**A.** Crystal form I

**Q.** What about the Total impurities ([6]; 0 day) of the same compound?
**A.** 0.05%

**Q.** What about the Water content ([6]; 0 day) of the same compound?
**A.** 0.05%

**Q.** And the Assay ([6]; 5 days)?
**A.** 101.1%

**Q.** What about the Polymorph ([6]; 5 days) of the same compound?
**A.** Crystal form I

**Q.** What about the Total impurities ([6]; 5 days) of the same compound?
**A.** 0.07%

**Q.** What about the Water content ([6]; 5 days) of the same compound?
**A.** 0.04%

**Q.** What about the Assay ([6]; 10 days) of the same compound?
**A.** 100.0%

**Q.** What about the Polymorph ([6]; 10 days) of the same compound?
**A.** Crystal form I

**Q.** What about the Total impurities ([6]; 10 days) of the same compound?
**A.** 0.07%

**Q.** And the Water content ([6]; 10 days)?
**A.** 0.04%

**Q.** What about the “XRPD after heating compared to before heating” value [1] of the same compound?
**A.** unchanged

**Q.** What about the “hygroscopicity (in words)” value [7] of the same compound?
**A.** non-hygroscopic

**Q.** What about the “mass increase compared with the initial mass (DVS)” value ([7]; relative humidity from 0 to 95%, 25° C.) of the same compound?
**A.** 0.00944% and 0.01%

**Q.** And the Assay ([8]; 0 day)?
**A.** 99.1%

**Q.** And the Polymorph ([8]; 0 day)?
**A.** Crystal form I

**Q.** What about the Total impurities ([8]; 0 day) of the same compound?
**A.** 0.05%

**Q.** What about the Water content ([8]; 0 day) of the same compound?
**A.** 0.05%

**Q.** And the Assay ([8]; 5 days)?
**A.** 100.1%

**Q.** What about the Polymorph ([8]; 5 days) of the same compound?
**A.** Crystal form I

**Q.** And the Total impurities ([8]; 5 days)?
**A.** 0.07%

**Q.** And the Water content ([8]; 5 days)?
**A.** 0.06%

**Q.** What about the Assay ([8]; 10 days) of the same compound?
**A.** 100.6%

**Q.** What about the Polymorph ([8]; 10 days) of the same compound?
**A.** Crystal form I

**Q.** And the Total impurities ([8]; 10 days)?
**A.** 0.07%

**Q.** And the Water content ([8]; 10 days)?
**A.** 0.09%

**Q.** And the “crystal form after suspension equilibrium (XRPD)” value ([9]; 7 days, single organic solvents (methanol, ethanol, isopropanol, acetone, ethyl acetate etc.))?
**A.** unchanged

**Q.** And the “crystal form after suspension equilibrium (XRPD)” value ([9]; 14 days, water and methanol-, ethanol-, isopropanol-, acetone-water mixtures)?
**A.** unchanged

**Q.** And the Assay ([10]; 0 day)?
**A.** 99.1%

**Q.** What about the Total impurities ([10]; 0 day) of the same compound?
**A.** 0.05%

**Q.** What about the Water content ([10]; 0 day) of the same compound?
**A.** 0.04%

**Q.** And the Assay ([10]; 1 month)?
**A.** 99.2%

**Q.** What about the Total impurities ([10]; 1 month) of the same compound?
**A.** 0.05%

**Q.** What about the Water content ([10]; 1 month) of the same compound?
**A.** 0.06%

**Q.** And the Assay ([10]; 2 months)?
**A.** 98.6%

**Q.** What about the Total impurities ([10]; 2 months) of the same compound?
**A.** 0.03%

**Q.** And the Water content ([10]; 2 months)?
**A.** 0.03%

**Q.** What about the Assay ([10]; 3 months) of the same compound?
**A.** 98.5%

**Q.** What about the Total impurities ([10]; 3 months) of the same compound?
**A.** 0.03%

**Q.** And the Water content ([10]; 3 months)?
**A.** 0.04%

**Q.** What about the Assay ([10]; 6 months) of the same compound?
**A.** 99.7%

**Q.** And the Total impurities ([10]; 6 months)?
**A.** 0.05%

**Q.** And the Water content ([10]; 6 months)?
**A.** 0.10%

**Q.** For `CC(C)(Cc1cc2c(-c3ccc(C#N)cc3)cncc2s1)C(=O)O` [crystal form VI, 3-[4-(4-Cyanophenyl)thieno[2,3-c]pyridin-2-yl]-2,2-dimethylpropanoic acid], which “XRPD after heating compared to before heating” value [1] is on record?
**A.** transform to the crystal form I
